# Assay results as given in PMC6945522, “Promoting tau secretion and propagation by hyperactive p300/CBP via autophagy-lysosomal pathway in tauopathy” (Molecular Neurodegeneration, 2020).
# pIC50: −log10 of the molar value.
# Biological target: T1, p300 (Homo sapiens, UniProt Q09472)
# T1 construct: gene EP300; fragment of p300 (aa 1815–1910), including the PHD, catalytic (HAT), ZZ and TAZ2 domains
# T1 sequence (Q09472 1815-1910): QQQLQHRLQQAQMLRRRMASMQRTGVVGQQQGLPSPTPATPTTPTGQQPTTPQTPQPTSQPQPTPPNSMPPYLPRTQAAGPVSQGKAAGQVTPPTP
# Assay: HTRF tau acetylation assay with purified p300 core domain; confirmed by orthogonal MMBC assay and DSF binding
# Type: biochemical
smiles,measurement,value
"Cc1cc2c(c(=S)[nH]1)C(=O)O/C2=C\c1ccco1 [compound 37892, SMDC37892]",pIC50,4.45
